Experimental data reported in patent US4360462A (priority 1977, dated 1982).
Values after ≈ are worked out from the molar mass of the structure shown. Where two headings read alike, the source gives them in different places.

Tests used:
Klebsiella pneumoniae = assay: Antimicrobial activity, paper disc method; format: cell-based; conditions: 0.02 ml of 300 μg/ml solution, trypticase-soy agar
Procedure: (§1) With trypticase-soy agar (BBL) as an assay medium, the inhibitory concentrations against the microorganisms named below were investigated by the paper disc method. Thus, filter-paper discs (Toyo Seisakusho, thin-type, 8 mm dia.) each impregnated with 0.02 ml of a 300 μg/ml solution of C-15003 P-3, P-3' or P-4 were placed on plates respectively inoculated with the microorganisms named below to investigate the minimal inhibitory concentrations.

Pseudomonas aeruginosa = assay: Antimicrobial activity, paper disc method; format: cell-based; conditions: 0.02 ml of 300 μg/ml solution, trypticase-soy agar
Procedure: as §1

Escherichia coli = assay: Antimicrobial activity, paper disc method; format: cell-based; conditions: 0.02 ml of 300 μg/ml solution, trypticase-soy agar
Procedure: as §1

Mycobacterium avium = assay: Antimicrobial activity, paper disc method; format: cell-based; conditions: 0.02 ml of 300 μg/ml solution, trypticase-soy agar
Procedure: as §1

Bacillus cereus = assay: Antimicrobial activity, paper disc method; format: cell-based; conditions: 0.02 ml of 300 μg/ml solution, trypticase-soy agar
Procedure: as §1

Proteus vulgaris = assay: Antimicrobial activity, paper disc method; format: cell-based; conditions: 0.02 ml of 300 μg/ml solution, trypticase-soy agar
Procedure: as §1

Serratia marcescens = assay: Antimicrobial activity, paper disc method; format: cell-based; conditions: 0.02 ml of 300 μg/ml solution, trypticase-soy agar
Procedure: as §1

Proteus mirabilis = assay: Antimicrobial activity, paper disc method; format: cell-based; conditions: 0.02 ml of 300 μg/ml solution, trypticase-soy agar
Procedure: as §1

Staphylococcus aureus = assay: Antimicrobial activity, paper disc method; format: cell-based; conditions: 0.02 ml of 300 μg/ml solution, trypticase-soy agar
Procedure: as §1

Bacillus subtilis = assay: Antimicrobial activity, paper disc method; format: cell-based; conditions: 0.02 ml of 300 μg/ml solution, trypticase-soy agar
Procedure: as §1

Tetrahymena pyriformis W = assay: Growth inhibitory activity, serial dilution method; format: cell-based; conditions: 28° C., 44 to 48 hours, pH 7.0, read-out: growth inhibition concentration
Procedure: The potency of the antibiotic was assayed with Tetrahymena pyriformis W as an assay organism.
(§2) On the other hand, with agar plates containing the assay medium [3.5 g disodium hydrogen phosphate, 0.5 g monopotassium dihydrogen phosphate, 5 g yeast extract (Difco), 10 g glucose, 15 g agar, 1000 ml distilled water, pH 7.0], the growth inhibition against Talaromyces avellaneus was assayed. In this assay, the minimal inhibitory concentrations were 3 μg/ml for C-15003 P-3 and P-3', and 1.5 μg/ml for C-15003 P-4. Furthermore, the wild strain of Tetrahymena pyriformis W as an assay organism was cultivated on an assay medium [composed of 20 g Proteose-peptone (Difco), 1 g yeast extract, 2 g glucose, 1000 ml distilled water and 10 ml 1 M-phosphate buffer pH 7.0] at 28° C. for 44 to 48 hours and the growth inhibitory activity of the antibiotic compounds against this particular microorganism was determined by the serial dilution method. Growth inhibition occurred at 1 μg/ml for C-15003 P-3 and P-3', and at 0.5 μg/ml for C-15003 P-4.

[1] = Acute toxicity test in mice; conditions: mouse, in vivo, ip, intraperitoneal injection
Talaromyces avellaneus = assay: Growth inhibition on agar plates; format: cell-based; conditions: Hamigera avellanea, pH 7.0, read-out: minimal inhibitory concentration
Procedure: as §2

P388 leukemia = assay: Antitumour activity, P388 leukemia in mice; format: in vivo, mouse; conditions: 0.00625 mg/kg/day, intraperitoneally for 9 consecutive days; 1×10^6 cells/animal, intraperitoneally transplanted
[2] = in chloroform, ethyl acetate, acetone, ethanol, methanol, pyridine, tetrahydrofuran & dimethylsulfoxide

Row | Compound | antimicrobial activity (minimal inhibitory concentration) (Klebsiella pneumoniae) | antimicrobial activity (minimal inhibitory concentration) (Pseudomonas aeruginosa) | antimicrobial activity (minimal inhibitory concentration) (Escherichia coli) | antimicrobial activity (minimal inhibitory concentration) (Mycobacterium avium) | antimicrobial activity (minimal inhibitory concentration) (Bacillus cereus) | antimicrobial activity (minimal inhibitory concentration) (Proteus vulgaris) | antimicrobial activity (minimal inhibitory concentration) (Serratia marcescens) | antimicrobial activity (minimal inhibitory concentration) (Proteus mirabilis) | antimicrobial activity (minimal inhibitory concentration) (Staphylococcus aureus) | antimicrobial activity (minimal inhibitory concentration) (Bacillus subtilis) | MIC (Tetrahymena pyriformis W) | Solubility (in benzene & ether) | Solubility [2] | Solubility (in petr. ether, hexane & water) | LD50 [1] | MIC (Talaromyces avellaneus) | life span-extending ratio (P388 leukemia)
1 | COc1cc2cc(c1Cl)N(C)C(=O)CC(OC(=O)CC(C)C)C1(C)OC1C(C)C1CC(O)(NC(=O)O1)C(OC)C=CC=C(C)C2 (stereo not shown) [C-15003 P-4] | no activity | no activity | no activity | no activity | no activity | no activity | no activity | no activity | no activity | no activity | 0.5 µg/mL (≈ 0.77 µM) | Sparingly soluble | Soluble | Insoluble | > 0.313 mg/kg | 1.5 µg/mL (≈ 2.31 µM) | 200%
2 | COc1cc2cc(c1Cl)N(C)C(=O)CC(OC(=O)C(C)C)C1(C)OC1C(C)C1CC(O)(NC(=O)O1)C(OC)C=CC=C(C)C2 (stereo not shown) [C-15003 P-3] | no activity | no activity | no activity | no activity | no activity | no activity | no activity | no activity | no activity | no activity | 1 µg/mL (≈ 1.57 µM) | Sparingly soluble | Soluble | Insoluble | > 0.313 mg/kg | 3 µg/mL (≈ 4.72 µM) | 200%
